Laboratory results as given in paper PMC9837997, “Purification, Characterization and anticancer activity of L-methionine γ-lyase from thermo-tolerant Aspergillus fumigatus” (Microbial Cell Factories, 2023).

System: T1, L-methionine γ-lyase (MGL); A. fumigatus L-methioninase
T1 construct: native extracellular enzyme purified from culture supernatant (heat treatment, Sephadex G-100); about 46 kDa on SDS-PAGE; homodimer
Test: DTNB assay of released methanethiol at […] nm, Lineweaver-Burk plot
Format: biochemical, Aspergillus fumigatus
Conditions: 0.05 M potassium phosphate pH 7.0, 0.01 mM PLP, 0.25 mM DTNB, 30 °C; read-out: apparent Km

CSCC[C@H](N)C(=O)O [L-methionine]
Km: 20.6 mM
